We go through 68 sequences from the supplement of paper PMC11208160.
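Further: IS621 bridge recombinase in Escherichia coli cells against a fixed T5 target plasmid.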

The data set can be described thus: recombinant UMI read abundance after kanamycin selection (control-corrected) (log10(CPM+1)); higher = more efficient recombination; extreme values may be limits of the assay; sequences stand for … in AGTGCAGAGAAAATCGGCCAGTTTTCTCTGCCTGCAGTCCGCATGCCGTGGGACCCCTTGGGTTCTAACCTGTTGCCTAGATTTATGCAGCGGACTGCCTTTCTCCCAAAGTGATAAACCGG…AGGTTGGTTTCACT; site = the 11-nt donor. The essentials:
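Sequencing read counts were converted to CPM, averaged over two replicates and scaled by control-derived factors. Results are given as log10(CPM+1). The reads covered the donor–target junction of recombinant UMIs from a pooled Escherichia coli screen of donor and donor-binding-loop pairs for the IS621 bridge recombinase.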
“TGCAAGGCATGGACCGGTTTTCCCGGTAATCCGTATTTGGT (site TGCAAGGCTAC)”: the “recombinant UMI read abundance (log10)” value was 0.43.
Turning to “TGCAAGGCATGGACCGGTTTTCCCGGTAATCCGTATTTGGT (site TGCCAGGCTAC)”, the “recombinant UMI read abundance (log10)” value is 0.0164.
On to “TGCAAGGCATGGACCGGTTTTCCCGGTAATCCGTATTTGGT (site TGCGAGGCTAC)”, for which the “recombinant UMI read abundance (log10)” value turned out to be 0.0243.
“TGCAAGGCATGGACCGGTTTTCCCGGTAATCCGTATTTGGT (site TGCTAGGCTAC)”: the “recombinant UMI read abundance (log10)” value was 0.0166.
With “TGCAATCCATGGACCGGTTTTCCCGGTAATCCGTATTTGTT (site CGGAATCCTAA)” the figure was 0.0106; with “TGCAATCCATGGACCGGTTTTCCCGGTAATCCGTATTTGTT (site TGCAATCCTAA)”, 0.672; with “TGCAATTCATGGACCGGTTTTCCCGGTAATCCGTATTTGCC (site TACAATTCTGG)”, 0.
For “TGCAATTCATGGACCGGTTTTCCCGGTAATCCGTATTTGCC (site TCCAATTCTGG)”, the “recombinant UMI read abundance (log10)” value came out at 0.
As to “TGCAATTCATGGACCGGTTTTCCCGGTAATCCGTATTTGCC (site TGCAATTCTGG)”, the “recombinant UMI read abundance (log10)” value was found to be 0.00516.
Regarding “TGCAATTCATGGACCGGTTTTCCCGGTAATCCGTATTTGCC (site TTCAATTCTGG)”, the “recombinant UMI read abundance (log10)” value came out at 0.
“TGCACGACATGGACCGGTTTTCCCGGTAATCCGTATTTGCC (site TGCACGACTGG)”: the “recombinant UMI read abundance (log10)” value came out at 1.52.
With “TGCACGTCATGGACCGGTTTTCCCGGTAATCCGTATTTGTC (site TGCACGTCTGA)”, the “recombinant UMI read abundance (log10)” value was determined as 1.26.
As to “TGCACTGCATGGACCGGTTTTCCCGGTAATCCGTATTTGCA (site TGCACTGCTTG)”, the “recombinant UMI read abundance (log10)” value came out at 0.198.
With “TGCCACGCATGGACCGGTTTTCCCGGTAATCCGTATTTGTC (site TGCCACGCTGA)” the figure was 2.07.
Then “TGCCAGGCATGGACCGGTTTTCCCGGTAATCCGTATTTGGT (site TGCAAGGCTAC)”, with 0.016; and “TGCCAGGCATGGACCGGTTTTCCCGGTAATCCGTATTTGGT (site TGCCAGGCTAC)”, with 0.00408.
With “TGCCAGGCATGGACCGGTTTTCCCGGTAATCCGTATTTGGT (site TGCGAGGCTAC)” the figure was 0.0315; with “TGCCAGGCATGGACCGGTTTTCCCGGTAATCCGTATTTGGT (site TGCTAGGCTAC)”, 0.0336.
With “TGCCATGCATGGACCGGTTTTCCCGGTAATCCGTATTTGGA (site TGCCATGCTTC)”, the “recombinant UMI read abundance (log10)” value was 0.294.
Regarding “TGCCGAACATGGACCGGTTTTCCCGGTAATCCGTATTTGAT (site TGCCGAACTAT)”, the “recombinant UMI read abundance (log10)” value came out at 1.59.
In the case of “TGCCGACCATGGACCGGTTTTCCCGGTAATCCGTATTTGTT (site TGCCGACCTAA)”, the “recombinant UMI read abundance (log10)” value came to 0.0263.
With “TGCCGTTCATGGACCGGTTTTCCCGGTAATCCGTATTTGAG (site TGCCGTTCTCT)” the figure was 0.00558; with “TGCCTAACATGGACCGGTTTTCCCGGTAATCCGTATTTGAA (site TGCCTAACTTT)”, 0.0425.
On to “TGCCTAGCATGGACCGGTTTTCCCGGTAATCCGTATTTGTT (site AGCCTAGCTAA)”, for which the “recombinant UMI read abundance (log10)” value is 0.014.
For “TGCCTAGCATGGACCGGTTTTCCCGGTAATCCGTATTTGTT (site CGCCTAGCTAA)”, the “recombinant UMI read abundance (log10)” value came out at 0.0169.
As to “TGCCTAGCATGGACCGGTTTTCCCGGTAATCCGTATTTGTT (site GGCCTAGCTAA)”, the “recombinant UMI read abundance (log10)” value came out at 0.0245.
On to “TGCCTAGCATGGACCGGTTTTCCCGGTAATCCGTATTTGTT (site TGCCTAGCTAA)”, for which the “recombinant UMI read abundance (log10)” value came to 0.0135.
With “TGCCTCTCATGGACCGGTTTTCCCGGTAATCCGTATTTGCG (site TGCCTCTCTCG)” the figure was 0.00512.
Consider “TGCGAGGCATGGACCGGTTTTCCCGGTAATCCGTATTTGGT (site TGCAAGGCTAC)”, for which the “recombinant UMI read abundance (log10)” value is 0.35.
Regarding “TGCGAGGCATGGACCGGTTTTCCCGGTAATCCGTATTTGGT (site TGCCAGGCTAC)”, the “recombinant UMI read abundance (log10)” value worked out at 0.0134.
As to “TGCGAGGCATGGACCGGTTTTCCCGGTAATCCGTATTTGGT (site TGCGAGGCTAC)”, the “recombinant UMI read abundance (log10)” value came out at 0.0084.
With “TGCGAGGCATGGACCGGTTTTCCCGGTAATCCGTATTTGGT (site TGCTAGGCTAC)” the figure was 0.242; with “TGCGGAACATGGACCGGTTTTCCCGGTAATCCGTATTTGCG (site TGCGGAACTCG)”, 0.885.
With “TGCGGCACATGGACCGGTTTTCCCGGTAATCCGTATTTGCC (site TGCGGCACTGG)” the figure was 1.44; with “TGCGGCACATGGACCGGTTTTCCCGGTAATCCGTATTTGGA (site TGCGGCACTTC)”, 0.0197; with “TGCGGGCCATGGACCGGTTTTCCCGGTAATCCGTATTTGCT (site TGCGGGCCTAG)”, 0.
Take “TGCGGTTCATGGACCGGTTTTCCCGGTAATCCGTATTTGAA (site TGCGGTTCTTT)”: the “recombinant UMI read abundance (log10)” value was 0.557.
For the sequence “TGCTACGCATGGACCGGTTTTCCCGGTAATCCGTATTTGGT (site TGCTAAGCTAC)”, the “recombinant UMI read abundance (log10)” value was found to be 0.00535.
For “TGCTACGCATGGACCGGTTTTCCCGGTAATCCGTATTTGGT (site TGCTACGCTAC)”, the “recombinant UMI read abundance (log10)” value was found to be 0.202.
Take “TGCTACGCATGGACCGGTTTTCCCGGTAATCCGTATTTGGT (site TGCTAGGCTAC)”: the “recombinant UMI read abundance (log10)” value stood at 0.
As to “TGCTACGCATGGACCGGTTTTCCCGGTAATCCGTATTTGGT (site TGCTATGCTAC)”, the “recombinant UMI read abundance (log10)” value was 0.00567.
With “TGCTAGCCATGGACCGGTTTTCCCGGTAATCCGTATTTGGT (site TGCTAGACTAC)” the figure was 0.00818.
Regarding “TGCTAGCCATGGACCGGTTTTCCCGGTAATCCGTATTTGGT (site TGCTAGCCTAC)”, the “recombinant UMI read abundance (log10)” value was 0.0034.
In the case of “TGCTAGCCATGGACCGGTTTTCCCGGTAATCCGTATTTGGT (site TGCTAGGCTAC)”, the “recombinant UMI read abundance (log10)” value turned out to be 0.0165.
“TGCTAGCCATGGACCGGTTTTCCCGGTAATCCGTATTTGGT (site TGCTAGTCTAC)”: the “recombinant UMI read abundance (log10)” value amounted to 0.00984.
Regarding “TGCTAGGCATGGACCGGTTTTCCCGGTAATCCGTATTTGCT (site TGCTAGGCTAA)”, the “recombinant UMI read abundance (log10)” value is 0.0205.
On to “TGCTAGGCATGGACCGGTTTTCCCGGTAATCCGTATTTGCT (site TGCTAGGCTAC)”, for which the “recombinant UMI read abundance (log10)” value was found to be 0.0125.
Consider “TGCTAGGCATGGACCGGTTTTCCCGGTAATCCGTATTTGCT (site TGCTAGGCTAG)”, for which the “recombinant UMI read abundance (log10)” value turned out to be 0.521.
Turning to “TGCTAGGCATGGACCGGTTTTCCCGGTAATCCGTATTTGCT (site TGCTAGGCTAT)”, the “recombinant UMI read abundance (log10)” value came out at 0.00772.
With “TGCTAGGCATGGACCGGTTTTCCCGGTAATCCGTATTTGGA (site TGCTAGGCTAC)” the figure was 0.138; with “TGCTAGGCATGGACCGGTTTTCCCGGTAATCCGTATTTGGA (site TGCTAGGCTCC)”, 0.0137.
With “TGCTAGGCATGGACCGGTTTTCCCGGTAATCCGTATTTGGA (site TGCTAGGCTGC)” the figure was 0; with “TGCTAGGCATGGACCGGTTTTCCCGGTAATCCGTATTTGGA (site TGCTAGGCTTC)”, 0.261; with “TGCTAGGCATGGACCGGTTTTCCCGGTAATCCGTATTTGGC (site TGCTAGGCTAC)”, 0.0365.
For the sequence “TGCTAGGCATGGACCGGTTTTCCCGGTAATCCGTATTTGGC (site TGCTAGGCTCC)”, the “recombinant UMI read abundance (log10)” value amounted to 0.013.
Regarding “TGCTAGGCATGGACCGGTTTTCCCGGTAATCCGTATTTGGC (site TGCTAGGCTGC)”, the “recombinant UMI read abundance (log10)” value came to 0.
On to “TGCTAGGCATGGACCGGTTTTCCCGGTAATCCGTATTTGGC (site TGCTAGGCTTC)”, for which the “recombinant UMI read abundance (log10)” value came to 0.0105.
With “TGCTAGGCATGGACCGGTTTTCCCGGTAATCCGTATTTGTT (site TGCTAGGCTAA)” the figure was 0.282; with “TGCTAGGCATGGACCGGTTTTCCCGGTAATCCGTATTTGTT (site TGCTAGGCTAC)”, 0.00683; with “TGCTAGGCATGGACCGGTTTTCCCGGTAATCCGTATTTGTT (site TGCTAGGCTAG)”, 0.00242.
With “TGCTAGGCATGGACCGGTTTTCCCGGTAATCCGTATTTGTT (site TGCTAGGCTAT)” the figure was 0; with “TGCTGCCCATGGACCGGTTTTCCCGGTAATCCGTATTTGTC (site TGCTGCCCTGA)”, 0.338; with “TGGAACCCATGGACCGGTTTTCCCGGTAATCCGTATTTGTT (site CGGAATCCTAA)”, 0.
Regarding “TGGAACCCATGGACCGGTTTTCCCGGTAATCCGTATTTGTT (site TGGAACCCTAA)”, the “recombinant UMI read abundance (log10)” value turned out to be 1.15.
“TGGAAGACATGGACCGGTTTTCCCGGTAATCCGTATTTGTA (site AGGAAGACTTG)”: the “recombinant UMI read abundance (log10)” value amounted to 0.00598.
As for “TGGAAGACATGGACCGGTTTTCCCGGTAATCCGTATTTGTA (site TGGAAGACTTA)”, the “recombinant UMI read abundance (log10)” value is 2.36.
As to “TGGAAGTCATGGACCGGTTTTCCCGGTAATCCGTATTTGGC (site TGGAAGTCTGC)”, the “recombinant UMI read abundance (log10)” value was 2.31.
Consider “TGGAATACATGGACCGGTTTTCCCGGTAATCCGTATTTGTG (site TGGAATACTCA)”, for which the “recombinant UMI read abundance (log10)” value was 1.12.
